Assay results: ChEMBL document CHEMBL5352441, “Modulation of FLT3-ITD and CDK9 in acute myeloid leukaemia cells by novel proteolysis targeting chimera (PROTAC)” (2022)
Calls of active or inactive are those of the source. No cut-off for these calls is given here. Peptide text beside a SMILES is read from it. * marks the point of attachment. Cbz = O=C(OCc1ccccc1)*

Tests used:
[1] = test system: MV4-11; assay: Effect on FLT3 protein level in human MV4-11 cells at 10 uM incubated for 90 mins by immunoblot analysis; type: functional, cell-based
[2] = biological target: Receptor-type tyrosine-protein kinase FLT3 (Homo sapiens) (UniProt P36888); assay: Inhibition of FLT3 signalling pathway in human MV4-11 cells assessed as reduction in STAT5 phosphorylation at Y694 residue at 10 uM incubated for 90 mins by immunoblot analysis; type: cell-based
Sequence of Receptor-type tyrosine-protein kinase FLT3 (Homo sapiens) (P36888 whole entry): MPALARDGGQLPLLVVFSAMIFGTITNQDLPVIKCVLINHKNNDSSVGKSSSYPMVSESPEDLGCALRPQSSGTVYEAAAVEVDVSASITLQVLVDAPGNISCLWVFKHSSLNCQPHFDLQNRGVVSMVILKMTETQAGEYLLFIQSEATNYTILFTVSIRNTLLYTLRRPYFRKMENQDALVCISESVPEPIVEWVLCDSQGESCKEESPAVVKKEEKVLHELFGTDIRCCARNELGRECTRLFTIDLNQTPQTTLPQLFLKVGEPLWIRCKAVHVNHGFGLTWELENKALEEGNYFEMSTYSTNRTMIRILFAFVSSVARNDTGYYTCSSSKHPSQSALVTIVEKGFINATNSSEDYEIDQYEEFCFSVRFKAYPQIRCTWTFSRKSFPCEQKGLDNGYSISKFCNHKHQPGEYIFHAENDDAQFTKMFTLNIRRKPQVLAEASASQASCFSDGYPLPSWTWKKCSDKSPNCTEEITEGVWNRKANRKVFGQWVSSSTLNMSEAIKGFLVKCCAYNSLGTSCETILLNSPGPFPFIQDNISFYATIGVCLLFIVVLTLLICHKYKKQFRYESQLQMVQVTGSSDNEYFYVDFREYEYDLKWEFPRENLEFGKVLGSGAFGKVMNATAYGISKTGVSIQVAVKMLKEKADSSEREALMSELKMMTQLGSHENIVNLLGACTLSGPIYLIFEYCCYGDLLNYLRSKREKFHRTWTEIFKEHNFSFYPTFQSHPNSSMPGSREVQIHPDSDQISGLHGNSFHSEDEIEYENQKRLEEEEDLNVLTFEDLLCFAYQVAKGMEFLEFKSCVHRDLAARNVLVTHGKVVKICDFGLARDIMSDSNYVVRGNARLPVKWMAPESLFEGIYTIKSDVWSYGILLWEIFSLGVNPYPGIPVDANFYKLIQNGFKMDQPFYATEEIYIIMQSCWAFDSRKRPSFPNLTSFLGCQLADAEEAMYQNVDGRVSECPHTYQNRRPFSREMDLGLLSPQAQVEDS

[3] = test system: MV4-11; assay: Effect on CDK9 protein level in human MV4-11 cells at 10 uM incubated for 90 mins by immunoblot analysis; type: functional, cell-based
[4] = biological target: Receptor-type tyrosine-protein kinase FLT3 (Homo sapiens) (UniProt P36888); assay: Inhibition of FLT3 signalling pathway in human MV4-11 cells assessed as reduction in ERK1/2 phosphorylation at T202/Y204 residues at 10 uM incubated for 90 mins by immunoblot analysis; type: cell-based
[5] = biological target: Cyclin-dependent kinase 9 (Homo sapiens) (UniProt P50750); assay: Induction of CDK9 protein degradation in human MV4-11 cells at 0.2 uM incubated for 90 mins by immunoblot analysis; type: cell-based
Sequence of Cyclin-dependent kinase 9 (Homo sapiens) (P50750 whole entry): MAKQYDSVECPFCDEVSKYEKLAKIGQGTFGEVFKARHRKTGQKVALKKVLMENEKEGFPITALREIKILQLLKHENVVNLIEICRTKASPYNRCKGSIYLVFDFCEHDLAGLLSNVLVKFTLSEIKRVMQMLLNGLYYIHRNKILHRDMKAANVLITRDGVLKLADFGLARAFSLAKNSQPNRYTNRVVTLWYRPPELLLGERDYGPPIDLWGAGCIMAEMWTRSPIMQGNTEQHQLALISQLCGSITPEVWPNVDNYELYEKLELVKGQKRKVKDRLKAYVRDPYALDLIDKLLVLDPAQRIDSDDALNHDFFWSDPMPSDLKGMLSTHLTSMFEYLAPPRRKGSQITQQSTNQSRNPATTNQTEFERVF

[6] = biological target: Receptor-type tyrosine-protein kinase FLT3 (Homo sapiens) (UniProt P36888); assay: Induction of FLT3 protein degradation in human MV4-11 cells at 0.2 uM incubated for 90 mins by immunoblot analysis; type: cell-based
[7] = test system: MV4-11; assay: Downregulation of MCL-1 gene expression in human MV4-11 cells at 0.1 uM incubated for 4 hrs by qRT-PCR analysis; type: functional, cell-based
[8] = test system: MV4-11; assay: Downregulation of Myb gene expression in human MV4-11 cells at 0.1 uM incubated for 4 hrs by qRT-PCR analysis; type: functional, cell-based
[9] = test system: MV4-11; assay: Upregulation of FLT3 total protein level in human MV4-11 cells harboring FLT3-ITD mutation at 0.1 uM incubated for 16 hrs by immunoblot analysis; type: functional, cell-based
[10] = test system: MV4-11; assay: Upregulation of FLT3 total protein level in CRBN-deficient human MV4-11 cells at 0.1 uM incubated for 16 hrs by immunoblot analysis; type: functional, cell-based
[11] = test system: MV4-11; assay: Downregulation of Myc gene expression in human MV4-11 cells at 0.1 uM incubated for 4 hrs by qRT-PCR analysis; type: functional, cell-based
[12] = test system: MV4-11; assay: Downregulation of MEISI gene expression in human MV4-11 cells at 0.1 uM incubated for 4 hrs by qRT-PCR analysis; type: functional, cell-based
[13] = test system: MV4-11; assay: Downregulation of Bcl-2 gene expression in human MV4-11 cells at 0.1 uM incubated for 4 hrs by qRT-PCR analysis; type: functional, cell-based
[14] = test system: MV4-11; assay: Downregulation of HOXA9 gene expression in human MV4-11 cells at 0.1 uM incubated for 4 hrs by qRT-PCR analysis; type: functional, cell-based
[15] = test system: Kasumi 1; assay: Antiproliferative activity against human Kasumi 1 cells assessed as cell growth inhibition incubated for 72 hrs by resazurin dye based fluorescence analysis; type: functional
[16] = test system: MOLM-13; assay: Antiproliferative activity against human MOLM-13 cells harboring FLT3-ITD mutation assessed as cell growth inhibition incubated for 72 hrs by resazurin dye based fluorescence analysis; type: functional
[17] = test system: U-937; assay: Antiproliferative activity against human U-937 cells assessed as cell growth inhibition incubated for 72 hrs by resazurin dye based fluorescence analysis; type: functional
[18] = test system: CCRF-CEM; assay: Antiproliferative activity against human CEM cells assessed as cell growth inhibition incubated for 72 hrs by resazurin dye based fluorescence analysis; type: functional
[19] = test system: RS4-11; assay: Antiproliferative activity against human RS4-11 cells assessed as cell growth inhibition incubated for 72 hrs by resazurin dye based fluorescence analysis; type: functional
[20] = test system: MV4-11; assay: Antiproliferative activity against human MV4-11 cells harboring FLT3-ITD mutation assessed as cell growth inhibition incubated for 72 hrs by resazurin dye based fluorescence analysis; type: functional
[21] = test system: MV4-11; assay: Antiproliferative activity against CRBN-deficient human MV4-11 cells assessed as cell growth inhibition incubated for 72 hrs by resazurin dye based fluorescence analysis; type: functional
[22] = test system: THP-1; assay: Antiproliferative activity against human THP-1 cells assessed as cell growth inhibition incubated for 72 hrs by resazurin dye based fluorescence analysis; type: functional
[23] = biological target: CDK9/cyclin T1 (Homo sapiens) (UniProt O60563+P50750); assay: Inhibition of human CDK9/Cyclin T1 assessed as residual activity at 100 nM relative to control; type: protein-complex assay
[24] = biological target: Receptor-type tyrosine-protein kinase FLT3 (Homo sapiens) (UniProt P36888); assay: Inhibition of human FLT3 assessed as residual activity at 100 nM relative to control
[25] = test system: HL-60; assay: Antiproliferative activity against human HL-60 cells assessed as cell growth inhibition incubated for 72 hrs by resazurin dye based fluorescence analysis; type: functional

Question: With `O=C1CCC(N2C(=O)c3cccc(O)c3C2=O)C(=O)N1` (stereo not drawn) as the compound, how does the Activity [1] read?
Answer: inactive

Question: What about the inhibition [2] of the same compound?
Answer: inactive

Question: What about the Activity [3] of the same compound?
Answer: inactive

Question: What about the inhibition [4] of the same compound?
Answer: inactive

Question: Which results are given for `CC(C)C[C@@H](C=O)NC(=O)[C@H](CC(C)C)NC(=O)[C@H](CC(C)C)NC(=O)OCc1ccccc1` (Cbz-Leu-Leu-Leu-aldehyde)?
Answer: Activity [5]: inactive; Activity [6]: inactive

Question: What does the source list for `CC(C)(C)c1cc(NC(=O)Nc2ccc(-c3cn4c(n3)sc3cc(OCCN5CCOCC5)ccc34)cc2)no1`?
Answer: Activity [7]: inactive; Activity [8]: inactive; Activity [9]: Active; Activity [10]: Active; Activity [11]: inactive; Activity [12]: inactive; Activity [13]: inactive; Activity [14]: inactive

Question: With `CCN1CCN(c2ccc(Nc3nc(NC4CCC(N)CC4)nc4c3ncn4C3CCCC3)cc2)CC1` (stereo not drawn) as the compound, how does the GI50 [15] read?
Answer: 534 nM

Question: What about the GI50 [16] of the same compound?
Answer: 8 nM

Question: What about the GI50 [17] of the same compound?
Answer: 695 nM

Question: And the GI50 [18]?
Answer: 1280 nM

Question: What about the GI50 [19] of the same compound?
Answer: 295 nM

Question: What about the GI50 [20] of the same compound?
Answer: 9 nM

Question: And the GI50 [21]?
Answer: 8 nM

Question: What about the GI50 [22] of the same compound?
Answer: 681 nM

Question: What about the Activity [23] of the same compound?
Answer: 3%

Question: And the Activity [24]?
Answer: 2%

Question: What about the GI50 [25] of the same compound?
Answer: 1520 nM

Question: `CNC(=O)c1cc(Oc2ccc(NC(=O)Nc3ccc(Cl)c(C(F)(F)F)c3)cc2)ccn1` was tested. Which Activity [7] did it give?
Answer: inactive

Question: And the Activity [8]?
Answer: inactive

Question: And the Activity [9]?
Answer: Active

Question: And the Activity [10]?
Answer: Active

Question: What about the Activity [11] of the same compound?
Answer: inactive

Question: What about the Activity [12] of the same compound?
Answer: inactive

Question: And the Activity [13]?
Answer: inactive

Question: And the Activity [14]?
Answer: inactive
